From ChEMBL document CHEMBL1156390, “Phyllanemblinins A-F, new ellagitannins from Phyllanthus emblica” (J Nat Prod, 2001)
Active and inactive are the calls of the source. The calls are words filed in the database; no cut-off is given here.

System: Radical scavenging activity
Assay: Antioxidant activity assessed as DPPH radical scavenging activity
Assay type: functional

Row | Structure (SMILES) | Activity
1 | O=C(O)C[C@@H]1C(=O)O[C@H]2[C@@H]3OC(=O)c4cc(O)c(O)c(O)c4-c4c(cc(O)c(O)c4O)C(=O)OC[C@H]2O[C@@H](OC(=O)c2cc(O)c(O)c(O)c2)[C@@H]3OC(=O)c2cc(O)c(O)c3c2[C@H]1[C@H](O)C(=O)O3 | Active
2 | O=C(O)C[C@@H]1C(=O)O[C@H]2[C@@H]3OC(=O)c4cc(O)c(O)c(O)c4-c4c(cc(O)c(O)c4O)C(=O)OC[C@H]2O[C@@H](OC(=O)c2cc(O)c(O)c(O)c2)[C@@H]3OC(=O)c2cc(O)c(O)c3c2[C@H]1[C@@](O)(C(=O)O)O3 | Active
